Reference: patent publication US20220202052A1, “AROMATIC ALKAMIDES AND METHODS OF USE THEREOF IN TASTE MODULATION” (INTERNATIONAL FLAVORS & FRAGRANCES INC., priority 2019, published 2022)

What was measured:
Assay type in all cases: in vivo, human
[1] = Sensory analysis of aromatic alkamide fractions by trained taste panel; conditions: 0.5 ppm in 4% pea protein isolate solution
Protocol: Sensory analysis of the aromatic alkamides was carried out. Specifically, each isolated fraction, corresponding to each of the aromatic alkamides in Table 7 (samples 14 to 21) (0.5 ppm), was added to a 4% pea protein isolate solution and the ability of the fraction to mask protein off-taste, bitterness, and/or astringency was assessed by a trained taste panel.

[2] = Trained taste panel, individual alkamides and blend vs ethanol extract; conditions: 5% pea protein isolate with 200 μl ethanol, levels per sample in Table 12; for Liking Score: 1 is best, 10 is worst
Protocol: Additional compositions were prepared (Table 12) and assessed by a trained taste panel for taste modulating activity as compared to an ethanol extract of L. meyenii. The protein control sample was a 5% pea protein isolate solution with 200 μl of ethanol added thereto.

[3] = Modulation of umami perception, trained panel; conditions: 0.5 ppm in 0.4% Chicken Bouillon solution
Protocol: The ability of L. meyenii extracts and fractions thereof to modulate umami flavors was determined by adding 25 ppm of an ethanolic extract of L. meyenii root (Example 1), 2 ppm of an ethyl acetate layer of a crude ethanolic extract, or 0.5 ppm of a fraction enriched in N-benzyloctadecanamide to a 0.4% Chicken Bouillon solution (Knorr Chicken Bouillon). Sensory analyses of the above-referenced compositions were carried out by a trained panel, the results of which are presented in Table 10.

Structure (SMILES) | Sensory taste in 4% protein base [1] | Off Taste: Astringent (intensity) [2] | Off Taste: Beany (intensity) [2] | Off Taste: Bitter (intensity) [2] | Off Taste: Burnt (intensity) [2] | Off Taste: Chalky (intensity) [2] | Off Taste: Earthy (intensity) [2] | Off Taste: Fishy (intensity) [2] | Off Taste: Gritty (intensity) [2] | Off Taste: Metallic/Unpleasant (intensity) [2] | Off Taste: Nutty (intensity) [2] | Off Taste: Sour (intensity) [2] | Liking Score [2] | Chicken Bouillon sensory (umami modulation) [3]
CCCCCCCC/C=C\CCCCCCCC(=O)NCc1ccccc1 [N-Benzyloleamide] | Little masking. | 4 | 5 | 2 | 0 | 6 | 2 | 0 | 4 | 2 | 2 | 2 | 2 | 
CCCCC/C=C\C/C=C\CCCCCCCC(=O)NCc1ccccc1 [N-Benzyl linoleamide, N-Benzyllinoleamide] | Little masking. |  |  |  |  |  |  |  |  |  |  |  |  | 
CCCCCCCCC/C=C/C=C/C(=O)CCCC(=O)NCc1ccccc1 [Macamide 2] | Good masking. | 2 | 5 | 3 | 0 | 2 | 2 | 0 | 2 | 1 | 2 | 3 | 2 | 
CCCCCCCCCCCCCCCC(=O)NCc1ccccc1 [Macamide 1, N-benzylhexadecanamide] |  | 2 | 3 | 2 | 0 | 2 | 2 | 0 | 2 | 1 | 0 | 2 | 1 | 
CCCCCCCCCCCCCCCCCC(=O)NCc1ccccc1 [N-Benzyloctadecanamide, N-Benzyl octadecanamide] |  | 2 | 3 | 2 | 0 | 2 | 2 | 0 | 2 | 2 | 2 | 2 | 1 | Showed some enhancement
CC/C=C\C/C=C\C/C=C\CCCCCCCC(=O)NCc1ccccc1 [N-Benzyl linolenamide, N-Benzyllinolenamide] | Moderate masking. |  |  |  |  |  |  |  |  |  |  |  |  | 
